Measured values: patent publication US8592581B2, “Trisubstituted purine derivatives” (Cyclacel Limited, priority 2007, dated 2013)

Legend:
MDA-MB-436 = assay: Alamar blue cytotoxicity assay MDA-MB-436; type: cell-based; settings: Homo sapiens, 72 hours, read-out: cellular cytotoxicity IC50 MDA-MB-436
Experimental: (§1) In order to determine the cellular potency of the compounds, the cytotoxicity of each compound was determined against a range of cell lines. Standard cytotoxicity methods were performed as follows: cells were seeded in 96-well plates appropriately for their doubling time (2-5000 cells per well) in RPMI or DMEM media containing 10% FCS and incubated overnight at 37° C., 5% CO2. The media was removed and 100 μl fresh media containing increasing concentrations of appropriate compound was added and the cells incubated for 72 hours at 37° C., 5% CO2. A 10% stock of alamar blue (Roche, Lewes, United Kingdom) was prepared in medium and 100 μl added to the cells which were incubated for 2 hours. Absorbance was measured on the Wallac Victor 2 1420 multi-label counter at 544-595 nm.

CYP2C19 [1] = target: T1, CYP2C19 (Homo sapiens (Human), UniProt P33261); assay: CYP2C19 inhibition, human liver microsomes, mephenyloin; type: in vitro ADME
T1 sequence (P33261 whole entry): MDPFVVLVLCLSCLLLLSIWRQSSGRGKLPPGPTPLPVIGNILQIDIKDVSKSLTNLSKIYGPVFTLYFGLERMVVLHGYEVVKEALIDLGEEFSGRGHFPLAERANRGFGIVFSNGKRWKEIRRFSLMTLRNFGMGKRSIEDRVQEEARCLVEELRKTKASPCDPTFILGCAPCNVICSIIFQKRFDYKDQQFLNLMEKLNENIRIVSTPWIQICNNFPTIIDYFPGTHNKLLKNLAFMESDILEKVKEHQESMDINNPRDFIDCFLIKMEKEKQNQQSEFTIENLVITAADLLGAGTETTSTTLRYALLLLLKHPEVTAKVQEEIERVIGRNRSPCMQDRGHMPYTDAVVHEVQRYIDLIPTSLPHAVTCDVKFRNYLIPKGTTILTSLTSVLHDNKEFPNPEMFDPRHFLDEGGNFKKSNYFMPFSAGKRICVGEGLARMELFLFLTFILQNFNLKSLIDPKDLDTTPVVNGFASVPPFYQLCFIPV
Experimental: Six test compound concentrations (0.05, 0.25, 0.5, 2.5, 5, 25 μM in DMSO; final DMSO concentration=0.25%) were incubated with human liver microsomes (0.5 mg/mL) and NADPH (1 mM) in the presence of the probe substrate mephenyloin (25 μM) for 60 min at 37° C. The selective CYP2C19 inhibitor, tranylcypromine, was screened alongside the test compounds as a positive control.
For the CYP1A incubations, the reactions were terminated by the addition of methanol, and the formation of the metabolite, resorufin, was monitored by fluorescence (excitation wavelength=535 nm, emission wavelength=595 nm). For the CYP2C9, CYP2C19, CYP2D6, and CYP3A4 incubations, the reactions were terminated by the addition of methanol containing internal standard. The samples were then centrifuged, and the supernatants were combined, for the simultaneous analysis of 4-hydroxytolbutamide, 4-hydroxymephenyloin, dextrorphan, and 1-hydroxymidazolam plus internal standard by LC-MS/MS using generic LC-MS/MS conditions. Formic acid in deionised water (final concentration=0.1%) was added to the final sample prior to analysis.

H358 = assay: Alamar blue cytotoxicity assay H358; type: cell-based; settings: Homo sapiens, NCI-H358; 72 hours; read-out: cellular cytotoxicity IC50 H358
Experimental: as §1

various cell lines = assay: Alamar blue cytotoxicity assay, average over the cell lines of Table 8; type: cell-based
Experimental: as §1

H2052 = assay: Alamar blue cytotoxicity assay H2052; type: cell-based; settings: Homo sapiens, NCI-H2052; 72 hours; read-out: cellular cytotoxicity IC50 H2052
Experimental: as §1

CDK2/cyclin A = CDK2/cyclin A (Homo sapiens (Human), UniProt P24941); assay: In-vitro recombinant kinase assay CDK2/cyclin A; type: biochemical; settings: Table 2; average of duplicate points; read-out: CDK2/Cyclin A Average IC50
Experimental: (§2) To evaluate the in-vitro kinase potency of the compounds, they were screened against CDK 2 and CDK9. Kinase assays were performed in 96-well plates using recombinant CDK/cyclins generated at Cyclacel. Ltd Dundee, UK. CDK2 and CDK9 assays were performed in a total volume of 25 μl in assay buffer (25 mM b-glycerophosphate, 20 mM MOPS, 5 mM EGTA, 1 mM DTT and 1 mM NaVO3, pH 7.4), into which were added 2-4 μg of active enzyme with appropriate substrates (purified histone H1 for CDK2/cyclin E, and CDK2/cyclin A, biotinyl-Ahx-(YSPTSPS)4 for CDK9/cyclin T1). […] CDK2 reactions were stopped by addition of 25 μl of 75 mM phosphoric acid, followed by filtration through P81 filterplates (Whatman Polyfiltronics, Kent, UK). For CDK9, the reaction was stopped by addition of 25 μl of 75 mM phosphoric acid, then 5 μl of 10 mg/ml avidin was added to each well and further incubated for 2 min followed by filtration as per CDK2 assay. After washing 3 times with 75 mM orthophosphoric acid, plates were dried, scintillant added and incorporated radioactivity measured in a scintillation counter (TopCount, Packard Instruments, Pangbourne, Berks, UK). Compounds for kinase assay were made up as 10 mM stocks in DMSO and diluted into 10% DMSO in assay buffer.
as §2

NCI-H929 = assay: Alamar blue cytotoxicity assay NCI-H929; type: cell-based; settings: Homo sapiens, 72 hours, read-out: cellular cytotoxicity IC50 NCI-H929
Experimental: as §1

NCI-H460 = assay: Alamar blue cytotoxicity assay NCI-H460; type: cell-based; settings: Homo sapiens, 72 hours, read-out: cellular cytotoxicity IC50 NCI-H460
Experimental: as §1

CYP3A4 = CYP3A4 (Homo sapiens (Human), UniProt P08684); assay: Cytochrome P450 substrate identification (Bactosomes) CYP3A4; type: in vitro ADME
Sequence of CYP3A4 (P08684 whole entry): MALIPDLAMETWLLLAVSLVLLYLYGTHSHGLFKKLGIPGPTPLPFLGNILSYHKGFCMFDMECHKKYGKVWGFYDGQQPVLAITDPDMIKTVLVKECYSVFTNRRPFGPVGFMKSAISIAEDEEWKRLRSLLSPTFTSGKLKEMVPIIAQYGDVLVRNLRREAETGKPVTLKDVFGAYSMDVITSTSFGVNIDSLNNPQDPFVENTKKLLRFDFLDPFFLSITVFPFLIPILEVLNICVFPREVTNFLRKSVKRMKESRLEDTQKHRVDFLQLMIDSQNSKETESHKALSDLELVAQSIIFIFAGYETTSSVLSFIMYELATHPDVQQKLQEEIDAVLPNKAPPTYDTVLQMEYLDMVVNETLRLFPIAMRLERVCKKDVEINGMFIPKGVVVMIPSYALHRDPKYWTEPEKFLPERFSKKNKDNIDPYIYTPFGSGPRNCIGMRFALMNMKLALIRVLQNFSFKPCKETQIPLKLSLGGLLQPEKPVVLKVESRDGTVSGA
Experimental: (§3) cDNA expressed human CYP450 enzyme preparations co-expressed with human NADPH cytochrome P450 reductase (Bactosomes™) were supplied by Cypex Ltd. Bactosomes™ (final P450 concentration CYP1A2 100 pmol/mL, CYP2C8 50 pmol/mL, CYP2C9 25 pmol/mL, CYP2C19 100 pmol/mL, CYP2D6 50 pmol/mL and CYP3A4 25 pmol/mL), 0.1M phosphate buffer pH7.4 and test compound (final substrate concentration=5 μM; final DMSO concentration=0.25%) were pre-incubated at 37° C. prior to the addition of NADPH (final concentration=1 mM) to initiate the reaction. Incubations were also performed using control bactosomes (no P450 enzymes present) to reveal any non-enzymatic degradation. The final incubation volume was 25 μL. Compounds known to be metabolised specifically by each CYP450 isoform were used as control compounds.
(§4) Each compound was incubated singly for 0, 5, 15, 30 and 45 min with each CYP isoform. The reactions were stopped by the addition of 50 μL methanol containing internal standard at the appropriate time points. The incubation plates were centrifuged at 2500 rpm for 20 min at 4° C. to precipitate the protein. Following protein precipitation, the sample supernatants were combined in cassettes of up to four compounds and analysed using generic LC-MS/MS conditions.
(§5) The In peak area ratio (which has been corrected for any loss in the incubations with the control bactosomes) was plotted against time and the gradient of the line determined.
(§6) The elimination rate constant (k)=(−gradient)

MESSA-Dx5 = assay: Alamar blue cytotoxicity assay MESSA-Dx5; type: cell-based; settings: Homo sapiens, MES-SA/Dx5; 72 hours; read-out: cellular cytotoxicity IC50 MESSA-Dx5
Experimental: as §1

CYP2C19 [2] = target: T1, CYP2C19; assay: Cytochrome P450 substrate identification (Bactosomes) CYP2C19; type: in vitro ADME; settings: pH 7.4, 5 μM test compound, up to 45 min, read-out: half life in the presence of CYP2C19
Experimental: as §3, §4, §5, §6

CYP2C8 = CYP2C8 (Homo sapiens (Human), UniProt P10632); assay: Cytochrome P450 substrate identification (Bactosomes) CYP2C8; type: in vitro ADME; settings: pH 7.4, 5 μM test compound, up to 45 min, read-out: half life in the presence of CYP2C8
Sequence of CYP2C8 (P10632 whole entry): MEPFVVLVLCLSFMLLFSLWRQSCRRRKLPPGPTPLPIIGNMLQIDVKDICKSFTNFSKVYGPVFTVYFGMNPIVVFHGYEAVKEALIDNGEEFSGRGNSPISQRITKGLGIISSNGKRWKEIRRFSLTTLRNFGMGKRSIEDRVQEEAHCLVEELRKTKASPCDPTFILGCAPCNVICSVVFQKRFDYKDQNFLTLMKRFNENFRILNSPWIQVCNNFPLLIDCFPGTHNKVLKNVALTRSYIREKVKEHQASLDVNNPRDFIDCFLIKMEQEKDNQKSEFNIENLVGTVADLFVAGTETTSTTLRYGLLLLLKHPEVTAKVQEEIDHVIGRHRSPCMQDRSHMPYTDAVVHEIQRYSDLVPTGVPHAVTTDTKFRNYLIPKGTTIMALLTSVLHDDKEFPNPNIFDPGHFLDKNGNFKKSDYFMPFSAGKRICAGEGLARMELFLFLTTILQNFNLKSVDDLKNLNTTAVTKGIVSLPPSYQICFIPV
Experimental: as §3, §4, §5, §6

SMILES: CC[C@H](Nc1nc(NCc2cnc(C)cc2C)c2ncn(C(C)C)c2n1)[C@@H](C)O [Compound [1]]
- IC50 (MDA-MB-436): 0.44 µM
- IC50 (CYP2C19 [1]): > 25 µM
- IC50 (H358): 0.18 µM
- cytotoxic potency compared with prior art compounds (in words) (various cell lines; 21 cell lines, versus [A1], [A2] or [A3]): significantly more potent
- IC50 (various cell lines; average over the cell lines of Table 8, read-out: cellular cytotoxicity IC50 Ave): 0.35 µM
- IC50 (H2052): 0.29 µM
- IC50 (CDK2/cyclin A): 0.09 µM
- IC50 (NCI-H929): 0.35 µM
- IC50 (NCI-H460): 0.5 µM
- substrate of CYP3A4 (in words) (CYP3A4; Bactosomes system): neither a substrate of nor inhibitor of CYP3A4
- half-life at 5 μM (CYP3A4; human, pH 7.4, Bactosomes, 5 μM test compound, up to 45 min, read-out: half life in the presence of CYP3A4): > 45 min
- IC50 (MESSA-Dx5): 1.21 µM
- half-life at 5 μM (CYP2C19 [2]): > 45 min
- half-life at 5 μM (CYP2C8): > 45 min
